In the NIST ThermoML archive (doi:10.1016/j.jct.2019.01.025):

How the values were obtained:
[1] = 101.33 kPa, Liquid, Vibrating tube method
[2] = xn = mol fraction of the nth substance listed; settings: 100 kPa, Liquid, Vibrating tube method

NCCO [2-aminoethan-1-ol]
[1]
Settings | mass density [kg/m3]
293.15 K | 1016.47
298.15 K | 1012.53
303.15 K | 1008.47
308.15 K | 1004.49
313.15 K | 1000.5
318.15 K | 996.39
323.15 K | 992.41

NCCO [2-aminoethan-1-ol] + CCCO
mass density [kg/m3], [2]
Settings | x1 = 0.0986 | x1 = 0.1974 | x1 = 0.2966 | x1 = 0.3961 | x1 = 0.496 | x1 = 0.5961 | x1 = 0.6966 | x1 = 0.7974 | x1 = 0.8985 | x1 = 1
293.15 K | 823.05 | 842.4 | 862.05 | 882.56 | 903.81 | 924.46 | 946.99 | 969.87 | 992.94 | 1016.47
298.15 K | 818.95 | 838.27 | 857.94 | 878.51 | 899.73 | 920.46 | 942.97 | 965.86 | 988.96 | 1012.53
303.15 K | 814.83 | 834.12 | 853.8 | 874.37 | 895.6 | 916.36 | 938.85 | 961.75 | 984.88 | 1008.47
308.15 K | 810.75 | 830.03 | 849.74 | 870.31 | 891.55 | 912.32 | 934.79 | 957.71 | 980.88 | 1004.49
313.15 K | 806.64 | 825.91 | 845.63 | 866.21 | 887.47 | 908.27 | 930.72 | 953.68 | 976.87 | 1000.5
318.15 K | 802.38 | 821.65 | 841.39 | 861.99 | 883.26 | 904.08 | 926.53 | 949.53 | 972.75 | 996.39
323.15 K | 798.19 | 817.46 | 837.23 | 857.84 | 879.14 | 899.9 | 922.45 | 945.49 | 968.76 | 992.41

NCCO [2-aminoethan-1-ol] + CCO
mass density [kg/m3], [2]
Settings | x1 = 0.0773 | x1 = 0.1586 | x1 = 0.2443 | x1 = 0.3346 | x1 = 0.43 | x1 = 0.5308 | x1 = 0.6377 | x1 = 0.7511 | x1 = 0.8716 | x1 = 1
293.15 K | 810.46 | 831.93 | 853.39 | 876.12 | 899.09 | 921.99 | 945.08 | 968.64 | 992.58 | 1016.47
298.15 K | 806.22 | 827.71 | 849.2 | 871.96 | 894.95 | 917.9 | 941.02 | 964.62 | 988.58 | 1012.53
303.15 K | 801.86 | 823.37 | 844.9 | 867.69 | 890.7 | 913.65 | 936.83 | 960.48 | 984.46 | 1008.47
308.15 K | 797.55 | 819.07 | 840.65 | 863.47 | 886.5 | 909.55 | 932.73 | 956.42 | 980.42 | 1004.49
313.15 K | 793.21 | 814.75 | 836.38 | 859.23 | 882.29 | 905.4 | 928.6 | 952.34 | 976.38 | 1000.5
318.15 K | 788.71 | 810.29 | 831.96 | 854.85 | 877.94 | 901.1 | 924.34 | 948.13 | 972.21 | 996.39
323.15 K | 784.27 | 805.9 | 827.62 | 850.55 | 873.69 | 896.9 | 920.19 | 944.04 | 968.17 | 992.41

CC(C)CO [2-methyl-1-propanol]
[1]
Settings | mass density [kg/m3]
293.15 K | 801.85
298.15 K | 797.99
303.15 K | 794.03
308.15 K | 790.09
313.15 K | 786.12
318.15 K | 781.97
323.15 K | 777.86

CC(C)CO [2-methyl-1-propanol] + NCCO
[2], x2 = 0
Settings | mass density [kg/m3]
293.15 K | 801.85
298.15 K | 797.99
303.15 K | 794.03
308.15 K | 790.09
313.15 K | 786.12
318.15 K | 781.97
323.15 K | 777.86

CC(C)(C)O [2-methylpropan-2-ol]
[1]
Settings | mass density [kg/m3]
298.15 K | 780.61
303.15 K | 775.42
308.15 K | 770.21
313.15 K | 764.92
318.15 K | 759.42
323.15 K | 753.95

CC(C)(C)O [2-methylpropan-2-ol] + NCCO
[2], x2 = 0
Settings | mass density [kg/m3]
298.15 K | 780.61
303.15 K | 775.42
308.15 K | 770.21
313.15 K | 764.92
318.15 K | 759.42
323.15 K | 753.95

CCCCO [butan-1-ol]
[1]
Settings | mass density [kg/m3]
293.15 K | 809.77
298.15 K | 805.92
303.15 K | 802
308.15 K | 798.14
313.15 K | 794.24
318.15 K | 790.2
323.15 K | 786.21

CCCCO [butan-1-ol] + NCCO
[2], x2 = 0
Settings | mass density [kg/m3]
293.15 K | 809.77
298.15 K | 805.92
303.15 K | 802
308.15 K | 798.14
313.15 K | 794.24
318.15 K | 790.2
323.15 K | 786.21

CCO [ethanol]
[1]
Settings | mass density [kg/m3]
293.15 K | 789.4
298.15 K | 785.13
303.15 K | 780.75
308.15 K | 776.41
313.15 K | 772.04
318.15 K | 767.52
323.15 K | 763.04

CCO [ethanol] + NCCO
[2], x2 = 0
Settings | mass density [kg/m3]
293.15 K | 789.4
298.15 K | 785.13
303.15 K | 780.75
308.15 K | 776.41
313.15 K | 772.04
318.15 K | 767.52
323.15 K | 763.04

CCCO [propan-1-ol]
[1]
Settings | mass density [kg/m3]
293.15 K | 803.77
298.15 K | 799.69
303.15 K | 795.58
308.15 K | 791.52
313.15 K | 787.42
318.15 K | 783.17
323.15 K | 778.96

CCCO [propan-1-ol] + NCCO
[2], x2 = 0
Settings | mass density [kg/m3]
293.15 K | 803.77
298.15 K | 799.69
303.15 K | 795.58
308.15 K | 791.52
313.15 K | 787.42
318.15 K | 783.17
323.15 K | 778.96

CC(C)O [propan-2-ol]
[1]
Settings | mass density [kg/m3]
293.15 K | 785.1
298.15 K | 780.91
303.15 K | 776.57
308.15 K | 772.24
313.15 K | 767.82
318.15 K | 763.19
323.15 K | 758.55

CC(C)O [propan-2-ol] + NCCO
[2], x2 = 0
Settings | mass density [kg/m3]
293.15 K | 785.1
298.15 K | 780.91
303.15 K | 776.57
308.15 K | 772.24
313.15 K | 767.82
318.15 K | 763.19
323.15 K | 758.55
